Five compounds from ChEMBL document CHEMBL1128372, “Design and syntheses of potent and selective dipeptide inhibitors of Candida albicans myristoyl-CoA:protein N-myristoyltransferase” (J Med Chem, 1995) can be followed below.

Experiment [1] has as its target T1, Peptide N-myristoyltransferase (Homo sapiens, UniProt P30419+O60551).
T1 sequence (P30419 whole entry): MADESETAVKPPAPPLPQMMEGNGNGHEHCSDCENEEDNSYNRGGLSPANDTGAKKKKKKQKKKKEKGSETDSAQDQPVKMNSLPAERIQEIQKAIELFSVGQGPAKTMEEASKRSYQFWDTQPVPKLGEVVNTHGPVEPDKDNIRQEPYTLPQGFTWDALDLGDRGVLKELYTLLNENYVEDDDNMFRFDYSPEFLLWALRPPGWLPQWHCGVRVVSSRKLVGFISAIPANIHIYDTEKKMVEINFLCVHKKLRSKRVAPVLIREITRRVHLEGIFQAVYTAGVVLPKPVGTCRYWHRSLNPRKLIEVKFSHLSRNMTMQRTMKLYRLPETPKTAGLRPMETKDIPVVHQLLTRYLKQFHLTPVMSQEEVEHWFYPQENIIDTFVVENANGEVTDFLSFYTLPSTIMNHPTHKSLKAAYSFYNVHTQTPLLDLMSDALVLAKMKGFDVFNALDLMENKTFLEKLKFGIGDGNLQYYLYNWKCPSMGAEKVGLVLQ
T1 sequence (O60551 whole entry): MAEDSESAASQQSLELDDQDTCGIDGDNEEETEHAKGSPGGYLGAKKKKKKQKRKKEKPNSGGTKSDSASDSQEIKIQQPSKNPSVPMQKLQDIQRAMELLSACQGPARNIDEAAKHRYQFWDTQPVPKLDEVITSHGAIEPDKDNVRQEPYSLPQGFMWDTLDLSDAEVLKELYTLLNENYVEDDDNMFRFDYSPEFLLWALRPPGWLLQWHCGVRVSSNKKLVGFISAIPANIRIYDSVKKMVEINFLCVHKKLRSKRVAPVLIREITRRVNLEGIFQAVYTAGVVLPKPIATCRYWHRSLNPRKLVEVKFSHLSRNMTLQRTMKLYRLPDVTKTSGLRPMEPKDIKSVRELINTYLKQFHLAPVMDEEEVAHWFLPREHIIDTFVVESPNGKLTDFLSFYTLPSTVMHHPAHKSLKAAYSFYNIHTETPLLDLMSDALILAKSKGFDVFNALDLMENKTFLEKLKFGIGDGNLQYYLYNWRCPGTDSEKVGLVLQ
Description: Inhibitory activity against human N-Myristoyltransferase (NMT). It is filed as protein assay.

A short description of experiment [2]: Selectivity is the ratio of the IC50 against human NMT to the IC50 against Candida albicans NMT. The class given is functional.
The target of experiment [3] is Peptide N-myristoyltransferase (Candida albicans).
For experiment [4] the target is unchanged. The source holds these as a separate data set.
The target of experiment [5] is T1, Peptide N-myristoyltransferase. Kind of experiment: Apparent binding affinity against Human NMT. It is filed as protein assay.

As a reminder, the IC50 is the concentration that gives 50% inhibition. Lower therefore signals higher potency.

Where a SMILES comes first, the peptide text is derived from it. [ ]: non-standard residue; d: D form. Aun = NCCCCCCCCCCC(=O)O

For the compound `NCCCC[C@H](NC(=O)[C@H](CO)NC(=O)Cc1ccc(CCCCn2ccnc2)cc1)C(=O)NCCC1CCCCC1`, the IC50 in experiment [1] came to 16000 nM; in experiment [3] it was 420 nM. For the same compound, in experiment [2], the Selectivity turned out to be 38. Besides, in experiment [4], the Ki worked out at 590 nM.

As for `NCCCCCCCCCCC(=O)N[C@@H](CO)C(=O)N[C@@H](CCCCN)C(=O)NCCC1CCCCCCC1`, the IC50 in experiment [1] amounted to 1140 nM; in experiment [3] it was 300 nM. Besides, the Selectivity in experiment [2] stood at 3.8. This compound also gave a Ki in experiment [4] of 130 nM.

Regarding `CC(C)CCNC(=O)[C@H](CCCCN)NC(=O)[C@H](CO)NC(=O)CCCCCCCCCCN`, the values for the IC50 in experiment [1] and in experiment [3] were 420 nM and 780 nM, respectively. Besides, in experiment [2], the Selectivity is 0.5.

As to `NCCCC[C@H](NC(=O)[C@H](CO)NC(=O)CCCCCCCCCCn1ccnc1)C(=O)NCCC1CCCCC1`, the figures for the 50% inhibitory concentration (IC50) in experiment [1] and in experiment [3] were 11400 nM and 1600 nM, respectively. Also, the Selectivity in experiment [2] was 7.1. Also, the Ki in experiment [5] came to 4200 nM; in experiment [4], 760 nM.

`CC(C)C[C@H](NC(=O)[C@H](CCCCN)NC(=O)[C@H](CO)NC(=O)CCCCCCCCCCN)C(N)=O` (H-[Aun]SKL-NH2): the IC50 in experiment [1] turned out to be 230 nM; in experiment [3], 1200 nM. Also, in experiment [2], the Selectivity turned out to be 0.2.
